Source: ChEMBL document CHEMBL1136478, “New cerebrosides from Euphorbia peplis L.: antimicrobial activity evaluation” (2003)
In brackets after ≈: the same amount, converted by molar mass.

How the values were obtained:
Nakaseomyces glabratus [1] = experiment: Antifungal activity against Candida glabrata after 48 hr incubation; type: functional
[2] = system: Mycobacterium tuberculosis; experiment: Antibacterial activity against human Mycobacterium tuberculosis H37Rv; type: functional
Nakaseomyces glabratus [3] = experiment: Antifungal activity against Candida glabrata after 24 hr incubation; type: functional
Candida albicans [4] = experiment: Antifungal activity against Candida albicans after 48 hr incubation; type: functional
Escherichia coli = experiment: Antibacterial activity against Escherichia coli ATCC 25922; type: functional
[5] = system: Mycobacterium tuberculosis; experiment: Antibacterial activity against Mycobacterium tuberculosis H331; type: functional
Cryptococcus neoformans [6] = experiment: Antifungal activity against Cryptococcus neoformans after 48 hr incubation
Staphylococcus aureus = experiment: Antibacterial activity against Staphylococcus aureus ATCC 25923; type: functional
[7] = system: Mycobacterium tuberculosis; experiment: Antibacterial activity against Mycobacterium tuberculosis H172; type: functional
Candida parapsilosis [8] = experiment: Antifungal activity against Candida parapsilosis after 24 hr incubation; type: functional; settings: Lodderomyces parapsilosis
Cryptococcus neoformans [9] = experiment: Antifungal activity against Cryptococcus neoformans after 24 hr incubation
Candida parapsilosis [10] = experiment: Antifungal activity against Candida parapsilosis after 48 hr incubation; type: functional; settings: Lodderomyces parapsilosis
Candida albicans [11] = experiment: Antifungal activity against Candida albicans after 24 hr incubation; type: functional
[12] = system: Mycobacterium tuberculosis; experiment: Antibacterial activity against Mycobacterium tuberculosis H242; type: functional

Row | SMILES | MIC (Nakaseomyces glabratus [1]) [µg/mL] | MIC [2] [µg/mL] | MIC (Nakaseomyces glabratus [3]) [µg/mL] | MIC (Candida albicans [4]) [µg/mL] | MIC (Escherichia coli) [µg/mL] | MIC [5] [µg/mL] | MIC (Cryptococcus neoformans [6]) [µg/mL] | MIC (Staphylococcus aureus) [µg/mL] | MIC [7] [µg/mL] | MIC (Candida parapsilosis [8]) [µg/mL] | MIC (Cryptococcus neoformans [9]) [µg/mL] | MIC (Candida parapsilosis [10]) [µg/mL] | MIC (Candida albicans [11]) [µg/mL] | MIC [12] [µg/mL]
1 | CCCCCCCC/C=C/CCCCCCCCCCCCCC[C@@H](O)C(=O)N[C@@H](CO[C@@H]1OC(CO)[C@@H](O)C(O)C1O)[C@H](O)[C@H](O)CCC/C=C/CCCCCCCCC (some centres undefined) | > 128 | 40 (≈ 46 µM) | > 128 | > 128 | > 160 | 40 (≈ 46 µM) | > 128 | > 160 | 40 (≈ 46 µM) | > 128 | 128 (≈ 147 µM) | > 128 | > 128 | 80 (≈ 91.9 µM)
2 | CCCCCCCCC/C=C/CC/C=C/[C@@H](O)[C@H](CO[C@@H]1OC(CO)[C@@H](O)C(O)C1O)NC(=O)[C@H](O)CCCCCCCCCCCCCC (some centres undefined) | > 128 | > 160 | > 128 | > 128 | > 160 | > 160 | > 128 | > 160 | > 160 | > 128 | 128 (≈ 179 µM) | > 128 | > 128 | > 160
3 | CCCCCCCCC/C=C/CCC[C@@H](O)[C@@H](O)[C@H](CO[C@@H]1OC(CO)[C@@H](O)C(O)C1O)NC(=O)[C@H](O)CCCCCCCCCCCCCCCCCCCCCC (some centres undefined) | > 128 | > 160 | > 128 | > 128 | > 160 | > 160 | > 128 | > 160 | > 160 | > 128 | 128 (≈ 152 µM) | > 128 | > 128 | > 160
4 | CCCCCCCC/C=C/CCCCCCCCCCCC[C@@H](O)C(=O)N[C@@H](CO[C@@H]1OC(CO)[C@@H](O)C(O)C1O)[C@H](O)[C@H](O)CCC/C=C/CCCCCCCCC (some centres undefined) | > 128 | 160 (≈ 190 µM) | > 128 | > 128 | 160 (≈ 190 µM) | > 160 | > 128 | 160 (≈ 190 µM) | > 160 | > 128 | 64 (≈ 76 µM) | > 128 | > 128 | > 160
5 | O=C(O)c1cn(C2CC2)c2cc(N3CCNCC3)c(F)cc2c1=O [CIPROFLOXACIN] |  | 0.25 (≈ 0.754 µM) |  |  |  | 0.125 (≈ 0.377 µM) |  | 0.5 (≈ 1.51 µM) | 0.25 (≈ 0.754 µM) |  |  |  |  | 0.125 (≈ 0.377 µM)
6 | Clc1ccc(COC(Cn2ccnc2)c2ccc(Cl)cc2Cl)c(Cl)c1 (centres undefined) [MICONAZOLE] | 10 (≈ 24 µM) |  | 5 (≈ 12 µM) | 40 (≈ 96.1 µM) |  |  | 0.156 (≈ 0.375 µM) |  |  | 0.625 (≈ 1.5 µM) | 0.156 (≈ 0.375 µM) | 1.25 (≈ 3 µM) | 2.5 (≈ 6.01 µM) | 
